Measurements published in ChEMBL document CHEMBL1201862, “PubChem BioAssay data set” (2004).
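The compound was tested at five concentrations on cells cultured in 96-well plates, with a 48-hour exposure period. The concentration for 50% growth inhibition is given as GI50.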 Calls of active or inactive are those of the source. Rule as the data show it: active = GI50 up to about 1.1 µM and inactive = higher.

How the values were obtained:
Experiment in all cases: NCI-60 cell line screen, 48 h
MDA-MB-435 = tested on: MDA-MB-435
SK-MEL-5 = tested on: SK-MEL-5
NCI-H460 = tested on: NCI-H460
UACC-257 = tested on: UACC-257
SF-295 = tested on: SF-295
SN12C = tested on: SN12C
SNB-75 = tested on: SNB-75
T47D = tested on: T47D
SF-268 = tested on: SF-268
OVCAR-3 = tested on: OVCAR-3
SF-539 = tested on: SF-539
HOP-92 = tested on: HOP-92
HL-60 = tested on: HL-60
Malme-3M = tested on: Malme-3M
ACHN = tested on: ACHN
KM12 = tested on: KM12
NCI-H226 = tested on: NCI-H226
SNB-19 = tested on: SNB-19
UACC-62 = tested on: UACC-62

SMILES	GI50 (MDA-MB-435)	GI50 (SK-MEL-5)	GI50 (NCI-H460)	GI50 (UACC-257)	GI50 (SF-295)	GI50 (SN12C)	GI50 (SNB-75)	GI50 (T47D)	GI50 (SF-268)	GI50 (OVCAR-3)	GI50 (SF-539)	GI50 (HOP-92)	GI50 (HL-60)	GI50 (Malme-3M)	GI50 (ACHN)	GI50 (KM12)	GI50 (NCI-H226)	GI50 (SNB-19)	GI50 (UACC-62)
N#Cc1nc(-c2ccccc2C(=O)O)oc1N	> 100 µM (inactive)	> 100 µM (inactive)	> 100 µM (inactive)	> 100 µM (inactive)	> 100 µM (inactive)	> 100 µM (inactive)	> 100 µM (inactive)	> 100 µM (inactive)	> 100 µM (inactive)	> 100 µM (inactive)	> 100 µM (inactive)	> 100 µM (inactive)	> 100 µM (inactive)	> 100 µM (inactive)	> 100 µM (inactive)	> 100 µM (inactive)	> 100 µM (inactive)	> 100 µM (inactive)	> 100 µM (inactive)
COC(=O)[C@@H]1C[C@]2(CC=C(C)C)c3ccccc3N(S(=O)(=O)c3ccccc3)[C@@H]2N1C(=O)OC	10.4 µM (inactive)	11.6 µM (inactive)	14.1 µM (inactive)	10.7 µM (inactive)	24.3 µM (inactive)	40.6 µM (inactive)	13.1 µM (inactive)	5.94 µM (inactive)	18 µM (inactive)	19.4 µM (inactive)	24.8 µM (inactive)	15.1 µM (inactive)	9.14 µM (inactive)	32.5 µM (inactive)	25.5 µM (inactive)	19.7 µM (inactive)	19 µM (inactive)	34.1 µM (inactive)	4.5 µM (inactive)
CC(=O)N(C(C)=O)c1cc2c3c(c1)CCCN3CCC2	> 10 µM (inactive)	> 10 µM (inactive)	> 10 µM (inactive)	> 10 µM (inactive)	> 10 µM (inactive)	> 10 µM (inactive)	> 10 µM (inactive)	> 10 µM (inactive)	> 10 µM (inactive)	> 10 µM (inactive)	> 10 µM (inactive)	> 10 µM (inactive)	> 10 µM (inactive)	> 10 µM (inactive)	> 10 µM (inactive)	> 10 µM (inactive)	> 10 µM (inactive)	> 10 µM (inactive)	> 10 µM (inactive)
Cc1cc(=O)oc2c(CNC(C)C(=O)O)c(O)ccc12 (configuration not stated)	> 100 µM (inactive)	> 100 µM (inactive)	> 100 µM (inactive)	> 100 µM (inactive)	> 100 µM (inactive)	> 100 µM (inactive)	> 100 µM (inactive)	> 100 µM (inactive)	> 100 µM (inactive)	> 100 µM (inactive)	> 100 µM (inactive)	65.3 µM (inactive)	> 100 µM (inactive)	> 100 µM (inactive)	> 100 µM (inactive)	> 100 µM (inactive)	> 100 µM (inactive)	> 100 µM (inactive)	> 100 µM (inactive)
O=[N+]([O-])c1c(Br)cc(Br)c2c1Nc1c(ccc(Cl)c1Cl)S2	15.5 µM (inactive)	13.6 µM (inactive)	17.8 µM (inactive)	8.49 µM (inactive)	20.7 µM (inactive)	13.8 µM (inactive)	36.5 µM (inactive)	1.61 µM (inactive)	16.3 µM (inactive)	4.8 µM (inactive)	22.2 µM (inactive)	18.7 µM (inactive)	2.85 µM (inactive)	13.4 µM (inactive)	16.8 µM (inactive)	5.89 µM (inactive)	5.96 µM (inactive)	18.3 µM (inactive)	16 µM (inactive)
O=[N+]([O-])c1ccc2nnnn2c1	11.5 µM (inactive)	18 µM (inactive)	31.6 µM (inactive)	27.8 µM (inactive)	11.3 µM (inactive)	19.8 µM (inactive)	85.3 µM (inactive)	> 100 µM (inactive)	70.6 µM (inactive)	13.5 µM (inactive)	14.9 µM (inactive)	96.6 µM (inactive)	16 µM (inactive)	20.9 µM (inactive)	10.7 µM (inactive)	23.1 µM (inactive)	12.3 µM (inactive)	93.8 µM (inactive)	13.4 µM (inactive)
CCOC(=O)C1=C(C)C(C(=O)OC)/C(=C/c2cccc3cccnc23)C1=O (configuration not stated)	> 10 µM (inactive)	> 10 µM (inactive)	> 10 µM (inactive)	> 10 µM (inactive)	> 10 µM (inactive)	> 10 µM (inactive)	> 10 µM (inactive)	> 10 µM (inactive)	> 10 µM (inactive)	> 10 µM (inactive)	> 10 µM (inactive)	> 10 µM (inactive)	9.82 µM (inactive)	> 10 µM (inactive)	> 10 µM (inactive)	> 10 µM (inactive)	> 10 µM (inactive)	> 10 µM (inactive)	> 10 µM (inactive)
Oc1ccc(CNCc2ccccc2)c2cccnc12	0.0841 µM (active)	0.191 µM (active)	0.034 µM (active)	0.262 µM (active)	0.144 µM (active)	0.0601 µM (active)	0.0291 µM (active)	0.0783 µM (active)	0.24 µM (active)	0.217 µM (active)	0.34 µM (active)	0.177 µM (active)	0.294 µM (active)	0.321 µM (active)	0.182 µM (active)	0.448 µM (active)	5 µM (inactive)	0.211 µM (active)	0.5 µM (active)
